Measurements taken from paper PMC11274128, “Modification and Synergistic Studies of a Novel Frog Antimicrobial Peptide against Pseudomonas aeruginosa Biofilms” (Antibiotics, 2024).
Values after ≈ are worked out from the molar mass of the structure shown.

Key:
S. aureus (ATCC 6538) = assay: microbe, parasite or virus in culture; type: cell-based, Staphylococcus aureus; settings: Staphylococcus aureus, ATCC6538, planktonic S. aureus ATCC 6538; for MIC: 37 °C, nine repeats of three independent experiments, read-out: MIC; for MBC: lowest concentration killing 99.9% of inoculum, read-out: MBC
Description: (§1) The minimum inhibitory concentration (MIC) is the minimum concentration of an antimicrobial agent that prevents the visible growth of a bacterium or bacteria. The MIC is an important piece of data for research on new antimicrobial agents and helps in the effective selection of antibiotics to improve the success of treatment. The minimum bactericidal concentration (MBC) is defined as the lowest antibiotic concentration that kills 99.9% of the inoculum. This study mainly contained eight different microorganisms, which were Staphylococcus aureus (ATCC 6538), methicillin-resistant Staphylococcus aureus (NCTC 12493), Enterococcus faecalis (NCTC 12697), Escherichia coli (ATCC 8739), Klebsiella pneumoniae (ATCC 43816), Pseudomonas aeruginosa (ATCC CRM 9027), Acinetobacter baumannii (BAA 747), and Candida albicans (ATCC 10231). The bacteria were incubated in the compatible medium at 37 °C overnight.

MRSA (NCTC 12493) = assay: microbe, parasite or virus in culture; type: cell-based, methicillin-resistant Staphylococcus aureus; settings: Staphylococcus aureus, planktonic MRSA NCTC 12493; for MIC: 37 °C, nine repeats of three independent experiments, read-out: MIC; for MBC: lowest concentration killing 99.9% of inoculum, read-out: MBC
Description: as §1

E. faecalis (NCTC 12697) = assay: microbe, parasite or virus in culture; type: cell-based, Enterococcus faecalis; settings: Enterococcus faecalis, NCTC12697, planktonic E. faecalis NCTC 12697; for MIC: 37 °C, nine repeats of three independent experiments, read-out: MIC; for MBC: lowest concentration killing 99.9% of inoculum, read-out: MBC
Description: as §1

E. coli (ATCC 8739) = assay: microbe, parasite or virus in culture; type: cell-based, Escherichia coli; settings: Escherichia coli, ATCC8739, planktonic E. coli ATCC 8739; for MIC: 37 °C, nine repeats of three independent experiments, read-out: MIC; for MBC: lowest concentration killing 99.9% of inoculum, read-out: MBC
Description: as §1

[1] = tested on: K. pneumoniae (ATCC 43816); assay: microbe, parasite or virus in culture; type: cell-based, Klebsiella pneumoniae; settings: Klebsiella pneumoniae, ATCC43816, planktonic K. pneumoniae ATCC 43816; for MIC: 37 °C, nine repeats of three independent experiments, read-out: MIC; for MBC: lowest concentration killing 99.9% of inoculum, read-out: MBC
Description: as §1

[2] = tested on: P. aeruginosa (ATCC CRM 9027); assay: microbe, parasite or virus in culture; type: cell-based, Pseudomonas aeruginosa; settings: Pseudomonas aeruginosa, planktonic P. aeruginosa ATCC CRM 9027; for MIC: 37 °C, nine repeats of three independent experiments, read-out: MIC; for MBC: lowest concentration killing 99.9% of inoculum, read-out: MBC
Description: as §1

A. baumannii (BAA 747) = assay: microbe, parasite or virus in culture; type: cell-based, Acinetobacter baumannii; settings: Acinetobacter baumannii, BAA747, planktonic A. baumannii BAA 747; for MIC: 37 °C, nine repeats of three independent experiments, read-out: MIC; for MBC: lowest concentration killing 99.9% of inoculum, read-out: MBC
Description: as §1

[3] = tested on: S. aureus ATCC 6538 biofilm; type: cell-based, Staphylococcus aureus; settings: for MBIC: lowest concentration inhibiting at least 90% of biofilm formation; for MBEC: minimum concentration eradicating at least 99% of the biofilm
Description: (§2) The minimum bactericidal concentration (MBC) is defined as the lowest antibiotic concentration that kills 99.9% of the inoculum. The minimum biofilm inhibitory concentration (MBIC) is the lowest concentration that inhibits at least 90% of the formation of biofilm. The minimum biofilm eradication concentration (MBEC) is the minimum concentration that can eradicate at least 99% of the biofilm. In addition to the eight microorganisms described previously, this experiment was also applied to P. aeruginosa (ATCC 27853, ATCC BAA-2108, P. aeruginosa 01, P. aeruginosa 14).

MRSA NCTC 12493 biofilm = type: cell-based, methicillin-resistant Staphylococcus aureus; settings: for MBIC: lowest concentration inhibiting at least 90% of biofilm formation; for MBEC: minimum concentration eradicating at least 99% of the biofilm
Description: as §2

[4] = tested on: E. faecalis NCTC 12697 biofilm; type: cell-based, Enterococcus faecalis; settings: for MBIC: lowest concentration inhibiting at least 90% of biofilm formation; for MBEC: minimum concentration eradicating at least 99% of the biofilm
Description: as §2

[5] = tested on: K. pneumoniae ATCC 43816 biofilm; type: cell-based, Klebsiella pneumoniae; settings: for MBIC: lowest concentration inhibiting at least 90% of biofilm formation; for MBEC: minimum concentration eradicating at least 99% of the biofilm
Description: as §2

P. aeruginosa 01 biofilm = type: cell-based, Pseudomonas aeruginosa; settings: for MBIC: lowest concentration inhibiting at least 90% of biofilm formation; for MBEC: minimum concentration eradicating at least 99% of the biofilm
Description: as §2

P. aeruginosa 14 biofilm = type: cell-based, Pseudomonas aeruginosa; settings: for MBIC: lowest concentration inhibiting at least 90% of biofilm formation; for MBEC: minimum concentration eradicating at least 99% of the biofilm
Description: as §2

[6] = tested on: P. aeruginosa ATCC 27853 biofilm; type: cell-based, Pseudomonas aeruginosa; settings: for MBIC: lowest concentration inhibiting at least 90% of biofilm formation; for MBEC: minimum concentration eradicating at least 99% of the biofilm
Description: as §2

[7] = tested on: P. aeruginosa ATCC BAA-2108 biofilm; type: cell-based, Pseudomonas aeruginosa; settings: for MBIC: lowest concentration inhibiting at least 90% of biofilm formation; for MBEC: minimum concentration eradicating at least 99% of the biofilm
Description: as §2

[8] = tested on: P. aeruginosa ATCC CRM 9027 biofilm; type: cell-based, Pseudomonas aeruginosa; settings: for MBIC: lowest concentration inhibiting at least 90% of biofilm formation; for MBEC: minimum concentration eradicating at least 99% of the biofilm
Description: as §2

[9] = tested on: A. baumannii BAA 747 biofilm; type: cell-based, Acinetobacter baumannii; settings: for MBIC: lowest concentration inhibiting at least 90% of biofilm formation; for MBEC: minimum concentration eradicating at least 99% of the biofilm
Description: as §2

SMILES | MIC (S. aureus (ATCC 6538)) [µM] | MBC (S. aureus (ATCC 6538)) [µM] | MIC (MRSA (NCTC 12493)) [µM] | MBC (MRSA (NCTC 12493)) [µM] | MIC (E. faecalis (NCTC 12697)) [µM] | MBC (E. faecalis (NCTC 12697)) [µM] | MIC (E. coli (ATCC 8739)) [µM] | MBC (E. coli (ATCC 8739)) [µM] | MIC [1] [µM] | MBC [1] [µM] | MIC [2] [µM] | MBC [2] [µM] | MIC (A. baumannii (BAA 747)) [µM] | MBC (A. baumannii (BAA 747)) [µM] | MBIC [3] [µM] | MBEC [3] [µM] | MBIC (MRSA NCTC 12493 biofilm) | MBEC (MRSA NCTC 12493 biofilm) | MBIC [4] | MBEC [4] | further results
CO/N=C(\C(=O)N[C@@H]1C(=O)N2C(C(=O)[O-])=C(C[N+]3(C)CCCC3)CS[C@H]12)c1csc(N)n1 [Cefepime, reference compound] | 32 (≈ 15.4 µg/mL) | 64 (≈ 30.8 µg/mL) | 16 (≈ 7.69 µg/mL) | 32 (≈ 15.4 µg/mL) | 128 (≈ 61.5 µg/mL) | > 128 | 8 (≈ 3.84 µg/mL) | 16 (≈ 7.69 µg/mL) | 128 (≈ 61.5 µg/mL) | > 128 | 2 (≈ 0.961 µg/mL) | 2 (≈ 0.961 µg/mL) | 1 (≈ 0.481 µg/mL) | 2 (≈ 0.961 µg/mL) | 4 | 8 | >128/>128 µM | >128/>128 µM | >128/>128 µM | >128/>128 µM | MBIC [5]: >128/>128 µM; MBEC [5]: >128/>128 µM; MBIC (P. aeruginosa 01 biofilm): 4 µM; MBEC (P. aeruginosa 01 biofilm): > 128 µM; MBIC (P. aeruginosa 14 biofilm): 8 µM; MBEC (P. aeruginosa 14 biofilm): > 128 µM; MBIC [6]: 2 µM; MBEC [6]: 4 µM; MBIC [7]: 64 µM; MBEC [7]: > 128 µM; MBIC [8]: >128/>128 µM; MBEC [8]: >128/>128 µM; MBIC [9]: 128/>128 µM; MBEC [9]: 128/>128 µM
CNC(C)C1CCC(N)C(OC2C(N)CC(N)C(OC3OCC(C)(O)C(NC)C3O)C2O)O1 (centres unmarked) [Gentamicin, reference compound] | 2 (≈ 0.955 µg/mL) | 2 (≈ 0.955 µg/mL) | 1 (≈ 0.478 µg/mL) | 2 (≈ 0.955 µg/mL) | 16 (≈ 7.64 µg/mL) | 32 (≈ 15.3 µg/mL) | 2 (≈ 0.955 µg/mL) | 4 (≈ 1.91 µg/mL) | 1 (≈ 0.478 µg/mL) | 1 (≈ 0.478 µg/mL) | 0.25 (≈ 0.119 µg/mL) | 0.5 (≈ 0.239 µg/mL) | > 128 | > 128 | 8 | 16 | 2 µM | > 128 µM | >128/>128 µM | >128/>128 µM | MBIC [5]: 32/32 µM; MBEC [5]: 32/32 µM; MBIC (P. aeruginosa 01 biofilm): 4 µM; MBEC (P. aeruginosa 01 biofilm): 8 µM; MBIC (P. aeruginosa 14 biofilm): 2 µM; MBEC (P. aeruginosa 14 biofilm): 4 µM; MBIC [6]: 4 µM; MBEC [6]: > 128 µM; MBIC [7]: 16 µM; MBEC [7]: 128 µM; MBIC [8]: 2 µM; MBEC [8]: 4 µM; MBIC [9]: 8 µM; MBEC [9]: 16 µM
